From patent US4613601A, “(1-benzodioxin-6-ylmethyl)-4-substituted piperazines having antipsychotic activity” (Adir, S.A.R.L., priority 1982, dated 1986)
One block for each molecule: values may come before it.

How the values were obtained:
[1] = test system: dopaminergic inhibitory auto-receptors; experiment: electro-encephalogram / sleep in rats; type: in vivo
[2] = test system: dopaminergic post-synaptic receptors of the striatum; experiment: stereotyped movements in rats (Quinton and Halliwell scale); type: in vivo; settings: for total stereotypy score / total stereotypy score in 3 hours: groups of 8 rats; for stimulating activity on the dopaminergic post-synaptic receptors of the striatum: rats, from stereotypy scores; for total stereotypy score in 3 hours: 6 observations
Procedure: The research for stereotyped movements, proof of the existence of a direct post-synaptic dopaminergic stimulating activity, has been carried out in rats using the scale described by R. M. QUINTON and H. HALLIWELL, Nature, 200, 1963, 178-179. The experiment lasts 3 hours, the animals are observed every 30 minutes. The groups are made up of 8 rats each, and the results are the total scores of the accumulated individual scores of the stereotypies observed during the experiment (6 observations).

[3] = test system: conditioned avoidance response; experiment: conditioned avoidance response inhibition in the rat (shuttle box avoidance); type: in vivo, male WISTAR rats
Procedure: The method used is based on the works of COURVOISIER et al., Arch. Int. Pharmacodyn. 92, 305-361, (1953), and of JANSSEN et al., Arzneim. Forsch. 15, 104-117, (1965).
The experiments are carried out on groups of 10 to 20 male WISTAR rats weighing between 300 g and 400 g. Each animal is submitted to two day-sessions per week, one after treatment carried out on the substance studied at a given dose, 30 minutes before the session, the other following the administration of a solute of NaCl (0.154M)--I.P. route in both cases. The compound of Example 1 has been administered in solution in sterile bi-distilled water, at doses of 6.25, 12.5, 25, 50 and 75 mg/kg. I.P.
Piribedil chosen as reference product has been administered at the same doses and by the same route. This method is used to show the anti-psychotic activity of a substance. It is known that anti-psychotic agents inhibit the conditioned shunning response, without modifying the escape response following an electric shock (Unconditioned response).

[4] = test system: hypersensitive post-synaptic dopaminergic receptors; experiment: rotations in rats with unilateral lesions of the nigro-neostriatal tract (Ungerstedt); type: in vivo, rat
Procedure: The central dopaminergic activity for the compounds of the present invention was determined, especially by measuring the rotations of the rat according to the method of Ungerstedt U., European Journal of Pharmacology, 5, (1968) 107-110. For the compounds of the present invention, administered at a dose of 25 mg/kg subcutaneously, up to 380 rotations were obtained in 45 minutes.
Experiments have also been carried out on rats with unilateral lesions of the nigro-neostriatal tract.
These lesions are produced by local micro-injection of 6-hydroxy dopamine into the black substance of the rat, according to U. Ungerstedt; Europ. J. Pharmacol. 5, 1968, 107-110 and Advances in Neurology, vol. 3, Raven Press., New York (1973).
This treatment leads to a degeneration of the dopaminergic neurons coming from the nigra-substantia, going towards the neostriatum.
Furthermore, following this denervation, the post-synaptic receptors situated above the pithed tract, i.e., above the synapse which leads to the pithed neuron, become hypersensitive to the pharmacological dopaminergic agents administered. This direct activation of hypersensitive dopaminergic receptors then produces the supervention of a motor rotation behaviour in treated rats.
When the left nigro-striatal tract is destroyed, the rotations occur towards the right, on the opposite side to the lesion. The experimental groups each contain from 5 to 6 animals.

[5] = test system: pre-synaptic dopaminergic receptors; experiment: hypokinesia in the normal animal, mice or rats; type: in vivo
[6] = test system: d-amphetamine-induced dopaminergic hyperactivity; experiment: inhibition of d-amphetamine-induced motor phenomena in mice (activograph); type: in vivo
Procedure: the administration of d-amphetamine, at a dose of 1 to 3 mg/kg I.P. in mice, releases the supervention of motor phenomena registered using an activograph.

[7] = test system: dopaminergic inhibitory auto-receptors; experiment: motor depressant effects (hypokinesia) in mice; type: in vivo; settings: all doses studied from 20 to 160 mg/kg I.P.
Excerpt: The motor depressant effects of the compound of Example 1 have been studied in mice.

stimulating activity on the dopaminergic post-synaptic receptors of the striatum [2]: stimulates these receptors
Compound: c1cnc(N2CCN(Cc3ccc4c(c3)OCO4)CC2)nc1 [Piribedil, reference compound]
reduction of total sleep ([1]; E.E.G., same dose (30 mg/kg I.P.)): 50% | total stereotypy score ([2]; 20 mg/kg I.P.): 145 | total stereotypy score ([2]; 40 mg/kg I.P.): 246 | Crossings, % change in relation to control animals ([3]; 6.25 mg/kg I.P.): +50% | Escape response, % in relation to control animals ([3]; 6.25 mg/kg I.P.): +50% | Escape response, % over 20 ([3]; 6.25 mg/kg I.P.): 3% | Escape response, Number over 20 ([3]; 6.25 mg/kg I.P.): 0.6 | Shunning response, % in relation to control animals ([3]; 6.25 mg/kg I.P.): -1% | Shunning response, % over 20 ([3]; 6.25 mg/kg I.P.): 97% | Shunning response, Number over 20 ([3]; 6.25 mg/kg I.P.): 19.4 | Crossings, Number over 20 ([3]; 6.25 mg/kg I.P., * = P < 0.05): 29.5 | Crossings, % change in relation to control animals ([3]; 12.50 mg/kg I.P.): +47% | Escape response, % in relation to control animals ([3]; 12.50 mg/kg I.P.): 0% | Escape response, % over 20 ([3]; 12.50 mg/kg I.P.): 2% | Escape response, Number over 20 ([3]; 12.50 mg/kg I.P.): 0.4 | Shunning response, % in relation to control animals ([3]; 12.50 mg/kg I.P.): 0% | Shunning response, % over 20 ([3]; 12.50 mg/kg I.P.): 98% | Shunning response, Number over 20 ([3]; 12.50 mg/kg I.P.): 19.1 | Crossings, Number over 20 ([3]; 12.50 mg/kg I.P., * = P < 0.05): 28.9 | Crossings, % change in relation to control animals ([3]; 25 mg/kg I.P.): +148% | Escape response, % in relation to control animals ([3]; 25 mg/kg I.P.): +149% | Escape response, % over 20 ([3]; 25 mg/kg I.P.): 5% | Escape response, Number over 20 ([3]; 25 mg/kg I.P.): 1 | Shunning response, % in relation to control animals ([3]; 25 mg/kg I.P.): -3% | Shunning response, % over 20 ([3]; 25 mg/kg I.P.): 95% | Shunning response, Number over 20 ([3]; 25 mg/kg I.P.): 19 | Crossings, Number over 20 ([3]; 25 mg/kg I.P., * = P < 0.05): 48.9 | Crossings, % change in relation to control animals ([3]; 50 mg/kg I.P.): +118% | Escape response, % in relation to control animals ([3]; 50 mg/kg I.P.): +50% | Escape response, % over 20 ([3]; 50 mg/kg I.P.): 3% | Shunning response, % in relation to control animals ([3]; 50 mg/kg I.P.): -1% | Shunning response, % over 20 ([3]; 50 mg/kg I.P.): 97% | Crossings, Number over 20 ([3]; 50 mg/kg I.P., * = P < 0.05): 42.9 | Escape response, Number over 20 ([3]; 50 mg/kg I.P., * = P < 0.05): 0.6 | Shunning response, Number over 20 ([3]; 50 mg/kg I.P., * = P < 0.05): 19.4 | Crossings, % change in relation to control animals ([3]; 75 mg/kg I.P.): +115% | Escape response, % in relation to control animals ([3]; 75 mg/kg I.P.): +633% | Escape response, % over 20 ([3]; 75 mg/kg I.P.): 11% | Shunning response, % in relation to control animals ([3]; 75 mg/kg I.P.): -10% | Shunning response, % over 20 ([3]; 75 mg/kg I.P.): 89% | Crossings, Number over 20 ([3]; 75 mg/kg I.P., * = P < 0.05): 33.5 | Escape response, Number over 20 ([3]; 75 mg/kg I.P., * = P < 0.05): 2.2 | Shunning response, Number over 20 ([3]; 75 mg/kg I.P., * = P < 0.05): 17.8 | effect on the shunning responses ([3]; 6.25 to 75 mg/kg I.P.): no agonistic effect on the shunning responses | average number of rotations in 45 minutes ([4]; 50 mg/kg P.O.): 256 rotations

stimulating activity on the dopaminergic post-synaptic receptors of the striatum [2]: no important stimulating activity
Compound: C1=COc2cc(CN3CCN(c4ncccn4)CC3)ccc2O1 [Example 1, 1-(benzodioxin-6-ylmethyl)-4-(pyrimidin-2-yl)piperazine]
hypokinesia in the normal animal [5]: only provokes an hypokinesia | antagonism of the effects of d-amphetamine ([6]; 20 mg/kg compound against 1 mg/kg I.P. d-amphetamine): antagonise | antagonism of the effects of d-amphetamine ([6]; 40 mg/kg compound against 3 mg/kg I.P. d-amphetamine): antagonise | inhibition of the motor phenomena due to d-amphetamine ([6]; joint administration with d-amphetamine 1 to 3 mg/kg I.P.): inhibition of the motor phenomena due to the amphetamine | hypokinesia in mice [7]: provokes in mice a hypokinesia at all the doses studied | central effects observed in the electro-encephalogram [1]: central depressant effects | total sleep (slow sleep and paradoxal sleep), words ([1]; 30 mg/kg I.P.): increase in total sleep | increase in total sleep ([1]; 30 mg/kg I.P., second hour following administration): 100% | stereotyped movements ([2]; 80 mg/kg I.P. or S.C.): very few stereotyped movements | total stereotypy score in 3 hours ([2]; 80 mg/kg I.P.): 52 | total stereotypy score in 3 hours ([2]; 80 mg/kg S.C.): 49 | stereotypy in normal rats ([2]; normal rats): practically no sterotypy | Crossings, % over 20 ([3]; 6.25 mg/kg I.P.): -3% | Escape response, % in relation to control animals ([3]; 6.25 mg/kg I.P.): -14% | Escape response, % over 20 ([3]; 6.25 mg/kg I.P.): 1.5% | Escape response, Number over 20 ([3]; 6.25 mg/kg I.P.): 0.30 | Shunning response, % in relation to control animals ([3]; 6.25 mg/kg I.P.): +0.25% | Shunning response, % over 20 ([3]; 6.25 mg/kg I.P.): 98.5% | Shunning response, Number over 20 ([3]; 6.25 mg/kg I.P.): 19.7 | Crossings, Number over 20 ([3]; 6.25 mg/kg I.P., * = P < 0.05): 20.6 | Crossings, % over 20 ([3]; 12.50 mg/kg I.P.): -15% | Escape response, % in relation to control animals ([3]; 12.50 mg/kg I.P.): +71% | Escape response, % over 20 ([3]; 12.50 mg/kg I.P.): 3% | Escape response, Number over 20 ([3]; 12.50 mg/kg I.P.): 0.6 | Shunning response, % in relation to control animals ([3]; 12.50 mg/kg I.P.): -1% | Shunning response, % over 20 ([3]; 12.50 mg/kg I.P.): 97% | Shunning response, Number over 20 ([3]; 12.50 mg/kg I.P.): 19.4 | Crossings, Number over 20 ([3]; 12.50 mg/kg I.P., * = P < 0.05): 18.0 | Crossings, % over 20 ([3]; 25 mg/kg I.P.): -9% | Escape response, % in relation to control animals ([3]; 25 mg/kg I.P.): +71% | Escape response, % over 20 ([3]; 25 mg/kg I.P.): 3% | Escape response, Number over 20 ([3]; 25 mg/kg I.P.): 0.6 | Shunning response, % in relation to control animals ([3]; 25 mg/kg I.P.): -1% | Shunning response, % over 20 ([3]; 25 mg/kg I.P.): 97% | Shunning response, Number over 20 ([3]; 25 mg/kg I.P.): 19.4 | Crossings, Number over 20 ([3]; 25 mg/kg I.P., * = P < 0.05): 19.2 | Crossings, % change in relation to control animals ([3]; 50 mg/kg I.P.): +8% | Escape response, % in relation to control animals ([3]; 50 mg/kg I.P.): +814% | Escape response, % over 20 ([3]; 50 mg/kg I.P.): 16% | Shunning response, % in relation to control animals ([3]; 50 mg/kg I.P.): -15% | Shunning response, % over 20 ([3]; 50 mg/kg I.P.): 84% | diminution of the number of shunning responses ([3]; 50 mg/kg I.P.): 15% | increase of the escape responses ([3]; 50 mg/kg I.P.): 800% | Crossings, Number over 20 ([3]; 50 mg/kg I.P., * = P < 0.05): 22.9 | Escape response, Number over 20 ([3]; 50 mg/kg I.P., * = P < 0.05): 3.2 | Shunning response, Number over 20 ([3]; 50 mg/kg I.P., * = P < 0.05): 16.8 | Crossings, % change in relation to control animals ([3]; 75 mg/kg I.P.): +63% | Escape response, % in relation to control animals ([3]; 75 mg/kg I.P.): +533% | Escape response, % over 20 ([3]; 75 mg/kg I.P.): 9.5% | Shunning response, % in relation to control animals ([3]; 75 mg/kg I.P.): -8% | Shunning response, % over 20 ([3]; 75 mg/kg I.P.): 90.5% | diminution of the number of shunning responses ([3]; 75 mg/kg I.P.): 8% | increase of the escape responses ([3]; 75 mg/kg I.P.): 500% | increase of the number of spontaneous crossings ([3]; 75 mg/kg I.P.): 63% | mobility depressor, sedative, cataleptigenic effect ([3]; 75 mg/kg I.P.): neither a mobility depressor effect, nor sedative effect, nor cataleptigenic effect | Crossings, Number over 20 ([3]; 75 mg/kg I.P., * = P < 0.05): 25.4 | Escape response, Number over 20 ([3]; 75 mg/kg I.P., * = P < 0.05): 1.9 | Shunning response, Number over 20 ([3]; 75 mg/kg I.P., * = P < 0.05): 18.1 | conditioned and unconditioned responses ([3]; I.P.): reduces the conditioned responses without diminishing the unconditioned escape responses | average number of rotations in 45 minutes ([4]; 12.5 mg/kg S.C.): 182 rotations | average number of rotations in 45 minutes ([4]; 25 mg/kg S.C.): 380 rotations | average number of rotations in 45 minutes ([4]; 50 mg/kg P.O.): 543 rotations | rotations in the unilaterally pithed rat ([4]; right side, opposite side to the lesion): numerous rotations
